The target in experiment [1] is KDR (phospho-KDR, VEGF165-stimulated HUVEC cells) (Homo sapiens (Human), UniProt P35968). Put plainly: KDR autophosphorylation ELISA in HUVEC cells (Example G). Type of experiment: cell-based. The conditions noted are these: cellular activity; KDR autophosphorylation ELISA in HUVEC cells. In outline: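 Cells seeded, grown 24 h at 37 °C, starved 24 h serum-free; cpd 8-pt curve, 0.3% DMSO, 1 h; VEGF165 100 ng/mL, 5 min; cold PBS wash, lysis with orthovanadate and protease/phosphatase inhibitors; pKDR ELISA; IC50 by 4-parameter logistic regression.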

Experiment [2] addresses Human MER (residues 528-999) (Homo sapiens (Human), UniProt Q12866). Kind of experiment: Human Mer kinase assay, HTRF KinEase (Example C-2). The conditions noted are these: protocol of Example C-2 (other compounds). It is filed as biochemical. In a few lines:
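IC50 values from 10 concentrations via 4-parameter logistic fit of […], with DMSO as 100% and 1 μM reference compound as 0% activity. Reaction: MER kinase domain 528-999, 1 ng/well, 40 μM ATP (Km), biotin peptide, 5 mM MgCl2, 1 mM DTT, 3% DMSO, room temperature 60 min; HTRF streptavidin-XL665/Eu-antibody detection.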

Our source for the IC50 values is US12371428B2 (Exelixis, Inc., priority 2019, dated 2025).

Sequence of KDR (phospho-KDR, VEGF165-stimulated HUVEC cells) (P35968 20-1356): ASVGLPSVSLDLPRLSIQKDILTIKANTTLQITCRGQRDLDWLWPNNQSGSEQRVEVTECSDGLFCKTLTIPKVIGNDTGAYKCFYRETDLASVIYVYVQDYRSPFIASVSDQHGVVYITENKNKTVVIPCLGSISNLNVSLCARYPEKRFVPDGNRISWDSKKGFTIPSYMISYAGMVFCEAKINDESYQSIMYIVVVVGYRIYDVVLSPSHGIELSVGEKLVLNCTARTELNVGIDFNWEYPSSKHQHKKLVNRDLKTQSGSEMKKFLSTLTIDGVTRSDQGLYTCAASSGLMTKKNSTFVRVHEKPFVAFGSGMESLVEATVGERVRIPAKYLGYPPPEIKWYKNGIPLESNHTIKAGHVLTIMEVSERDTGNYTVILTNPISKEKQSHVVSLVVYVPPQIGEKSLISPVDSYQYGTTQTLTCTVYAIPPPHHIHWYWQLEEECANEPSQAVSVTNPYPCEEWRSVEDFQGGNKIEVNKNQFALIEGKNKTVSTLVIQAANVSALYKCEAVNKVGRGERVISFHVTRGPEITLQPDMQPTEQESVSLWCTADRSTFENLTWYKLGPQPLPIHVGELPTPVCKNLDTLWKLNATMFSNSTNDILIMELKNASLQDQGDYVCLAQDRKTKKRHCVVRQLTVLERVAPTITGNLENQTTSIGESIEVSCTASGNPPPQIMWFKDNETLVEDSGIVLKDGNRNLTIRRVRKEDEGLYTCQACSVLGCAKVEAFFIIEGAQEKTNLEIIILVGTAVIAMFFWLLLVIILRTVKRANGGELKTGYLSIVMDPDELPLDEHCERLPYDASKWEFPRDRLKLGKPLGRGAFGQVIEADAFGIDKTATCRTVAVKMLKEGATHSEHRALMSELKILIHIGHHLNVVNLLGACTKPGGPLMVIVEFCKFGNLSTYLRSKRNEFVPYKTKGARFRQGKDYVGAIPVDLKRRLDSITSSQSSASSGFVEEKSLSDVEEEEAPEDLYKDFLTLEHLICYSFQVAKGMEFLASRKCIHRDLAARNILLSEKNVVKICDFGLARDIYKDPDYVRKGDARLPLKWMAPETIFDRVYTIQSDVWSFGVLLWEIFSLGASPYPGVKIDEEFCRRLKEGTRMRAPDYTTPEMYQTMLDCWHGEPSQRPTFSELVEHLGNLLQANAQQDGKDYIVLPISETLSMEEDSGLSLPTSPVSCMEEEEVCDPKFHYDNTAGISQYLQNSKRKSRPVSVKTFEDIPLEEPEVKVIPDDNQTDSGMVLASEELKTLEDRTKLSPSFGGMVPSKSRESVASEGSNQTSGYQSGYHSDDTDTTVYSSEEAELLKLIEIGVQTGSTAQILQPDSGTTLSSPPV
Sequence of Human MER (residues 528-999) (Q12866 528-999): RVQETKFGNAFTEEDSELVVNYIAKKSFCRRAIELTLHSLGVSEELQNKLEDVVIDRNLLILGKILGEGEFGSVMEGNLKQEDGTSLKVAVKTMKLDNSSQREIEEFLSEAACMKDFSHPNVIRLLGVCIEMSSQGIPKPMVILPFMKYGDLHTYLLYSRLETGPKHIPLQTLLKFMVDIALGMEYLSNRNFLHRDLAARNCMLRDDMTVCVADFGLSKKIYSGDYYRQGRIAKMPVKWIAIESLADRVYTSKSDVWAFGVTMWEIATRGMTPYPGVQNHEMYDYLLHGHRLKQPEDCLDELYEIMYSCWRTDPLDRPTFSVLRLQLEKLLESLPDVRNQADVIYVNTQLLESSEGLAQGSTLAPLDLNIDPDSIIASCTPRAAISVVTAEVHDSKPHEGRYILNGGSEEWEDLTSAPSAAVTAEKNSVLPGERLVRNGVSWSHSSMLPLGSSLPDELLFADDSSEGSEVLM

On to `CCOc1c(-c2ccc(F)cc2)cnc(C)c1C(=O)Nc1ccc(Oc2ccnc3cc(OC)c(OC)nc23)c(F)c1` [Compound 403, N-[4-[(6,7-dimethoxy-1,5-naphthyridin-4-yl)oxy]-3-fluorophenyl]-4-ethoxy-5-(4-fluorophenyl)-2-methylpyridine-3-carboxamide], for which the IC50 in experiment [1] is 100 to 300 nM; in experiment [2] it was < 100 nM.
In the case of `COc1cc2nccc(Oc3ccc(NC(=O)c4c5n(cc(-c6ccc(F)cc6)c4=O)CCC5)cc3)c2nc1OC` [Compound 407, N-[4-[(6,7-dimethoxy-1,5-naphthyridin-4-yl)oxy]phenyl]-6-(4-fluorophenyl)-7-oxo-2,3-dihydro-1H-indolizine-8-carboxamide], the IC50 was > 300 nM in experiment [1] and < 100 nM in experiment [2].
Take `CNC(=O)c1cc2c(Oc3ccc(NC(=O)c4c5n(cc(-c6ccc(F)cc6)c4=O)CCC5)cc3F)ccnc2cc1OC` [Compound 408, 4-[2-fluoro-4-[[6-(4-fluorophenyl)-7-oxo-2,3-dihydro-1H-indolizine-8-carbonyl]amino]phenoxy]-7-methoxy-N-methylquinoline-6-carboxamide]: the half-maximal inhibitory concentration (IC50) in experiment [1] and in experiment [2] was < 100 nM throughout.
On to `COc1cc2nccc(Oc3ccc(NC(=O)c4c5n(cc(-c6ccc(F)cc6)c4=O)CCC5)cc3F)c2cc1OC` [Compound 409, N-[4-(6,7-dimethoxyquinolin-4-yl)oxy-3-fluorophenyl]-6-(4-fluorophenyl)-7-oxo-2,3-dihydro-1H-indolizine-8-carboxamide], for which the IC50 in experiment [1] and in experiment [2] was < 100 nM in each case.
Regarding `CCn1cc(C(=O)Nc2ccc(Oc3ccnc4cc(O)cnc34)c(F)c2)c(=O)c(-c2ccc(F)cc2)c1C` [Compound 410, 1-ethyl-N-[3-fluoro-4-[(7-hydroxy-1,5-naphthyridin-4-yl)oxy]phenyl]-5-(4-fluorophenyl)-6-methyl-4-oxopyridine-3-carboxamide], the IC50 in experiment [1] was > 300 nM; in experiment [2], < 100 nM.
Take `COc1cnc2c(Oc3ccc(NC(=O)c4cn(C)c(Cl)c(-c5ccc(F)cc5)c4=O)cc3F)ccnc2c1` [Compound 411, 6-chloro-N-[3-fluoro-4-[(7-methoxy-1,5-naphthyridin-4-yl)oxy]phenyl]-5-(4-fluorophenyl)-1-methyl-4-oxopyridine-3-carboxamide]: the IC50 in experiment [1] was > 300 nM; in experiment [2], < 100 nM.
On the same counts, the results for `COc1cc2nccc(Oc3ccc(NC(=O)c4cn(C)c(Cl)c(-c5ccc(F)cc5)c4=O)cc3F)c2nc1OC` [Compound 412, 6-chloro-N-[4-[(6,7-dimethoxy-1,5-naphthyridin-4-yl)oxy]-3-fluorophenyl]-5-(4-fluorophenyl)-1-methyl-4-oxopyridine-3-carboxamide] are < 100 nM and < 100 nM.
Turning to `COc1cc2nccc(Oc3ccc(NC(=O)c4cnc(C)c(-c5ccc(F)cc5)c4O)cc3)c2nc1OC(C)C` [Compound 413, 5-(4-fluorophenyl)-4-hydroxy-N-[4-[(7-methoxy-6-propan-2-yloxy-1,5-naphthyridin-4-yl)oxy]phenyl]-6-methylpyridine-3-carboxamide], the IC50 in experiment [1] and in experiment [2] was < 100 nM each time.
`COc1cc2nccc(Oc3ccc(NC(=O)c4cnc(C)c(-c5ccc(F)cc5C)c4O)cc3)c2nc1OC(C)C` [Compound 414, 5-(4-fluoro-2-methylphenyl)-4-hydroxy-N-[4-[(7-methoxy-6-propan-2-yloxy-1,5-naphthyridin-4-yl)oxy]phenyl]-6-methylpyridine-3-carboxamide]: the IC50 in experiment [1] and in experiment [2] was < 100 nM in each case.
On to `COc1cc2nccc(Oc3ccc(NC(=O)c4cnc(C)c(-c5ccc(F)cc5)c4O)cc3F)c2nc1OC(C)C` [Compound 415, N-[3-fluoro-4-[(7-methoxy-6-propan-2-yloxy-1,5-naphthyridin-4-yl)oxy]phenyl]-5-(4-fluorophenyl)-4-hydroxy-6-methylpyridine-3-carboxamide], for which the IC50 in experiment [1] and in experiment [2] was < 100 nM throughout.
For `COc1cc2nccc(Oc3ccc(NC(=O)c4cnc(C)c(-c5ccc(F)cc5C)c4O)cc3F)c2nc1OC(C)C` [Compound 416, N-[3-fluoro-4-[(7-methoxy-6-propan-2-yloxy-1,5-naphthyridin-4-yl)oxy]phenyl]-5-(4-fluoro-2-methylphenyl)-4-hydroxy-6-methylpyridine-3-carboxamide], the IC50 in experiment [1] and in experiment [2] was < 100 nM in each case.
On to `COc1cnc2c(Oc3ccc(NC(=O)c4cnc(C)c(-c5c(C)cc(F)cc5C)c4O)cc3F)ccnc2c1` [Compound 417, 5-(4-fluoro-2,6-dimethylphenyl)-N-[3-fluoro-4-[(7-methoxy-1,5-naphthyridin-4-yl)oxy]phenyl]-4-hydroxy-6-methylpyridine-3-carboxamide], for which the IC50 in experiment [1] and in experiment [2] was 100 to 300 nM each time.
Regarding `CCc1cnc2c(Oc3ccc(NC(=O)c4cnc(C)c(-c5ccc(F)cc5)c4O)cc3F)ccnc2c1` [Compound 418, N-[4-[(7-ethyl-1,5-naphthyridin-4-yl)oxy]-3-fluorophenyl]-5-(4-fluorophenyl)-4-hydroxy-6-methylpyridine-3-carboxamide], the IC50 in experiment [1] and in experiment [2] was < 100 nM each time.
Take `CCc1cnc2c(Oc3ccc(NC(=O)c4cnc(C)c(-c5ccc(F)cc5C)c4O)cc3F)ccnc2c1` [Compound 419, N-[4-[(7-ethyl-1,5-naphthyridin-4-yl)oxy]-3-fluorophenyl]-5-(4-fluoro-2-methylphenyl)-4-hydroxy-6-methylpyridine-3-carboxamide]: the IC50 in experiment [1] and in experiment [2] was < 100 nM in each case.
Consider `CCc1cc2nccc(Oc3ccc(NC(=O)c4cnc(C)c(-c5ccc(F)cc5)c4O)cc3F)c2nc1OC` [Compound 420, N-[4-[(7-ethyl-6-methoxy-1,5-naphthyridin-4-yl)oxy]-3-fluorophenyl]-5-(4-fluorophenyl)-4-hydroxy-6-methylpyridine-3-carboxamide], for which the IC50 in experiment [1] and in experiment [2] was < 100 nM each time.
For `CCc1cc2nccc(Oc3ccc(NC(=O)c4cnc(C)c(-c5ccc(F)cc5C)c4O)cc3F)c2nc1OC` [Compound 421, N-[4-[(7-ethyl-6-methoxy-1,5-naphthyridin-4-yl)oxy]-3-fluorophenyl]-5-(4-fluoro-2-methylphenyl)-4-hydroxy-6-methylpyridine-3-carboxamide], the IC50 in experiment [1] and in experiment [2] was < 100 nM throughout.
As to `C=Cc1cc2nccc(Oc3ccc(NC(=O)c4cnc(C)c(-c5ccc(F)cc5)c4O)cc3F)c2nc1OC` [Compound 422, N-[4-[(7-ethenyl-6-methoxy-1,5-naphthyridin-4-yl)oxy]-3-fluorophenyl]-5-(4-fluorophenyl)-4-hydroxy-6-methylpyridine-3-carboxamide], the IC50 in experiment [1] and in experiment [2] was < 100 nM each time.
Take `C=Cc1cc2nccc(Oc3ccc(NC(=O)c4cnc(C)c(-c5ccc(F)cc5C)c4O)cc3F)c2nc1OC` [Compound 423, N-[4-[(7-ethenyl-6-methoxy-1,5-naphthyridin-4-yl)oxy]-3-fluorophenyl]-5-(4-fluoro-2-methylphenyl)-4-hydroxy-6-methylpyridine-3-carboxamide]: the IC50 in experiment [1] and in experiment [2] was < 100 nM throughout.
As for `COc1cc2nccc(Oc3ccc(NC(=O)c4cnc(C)c(-c5ccc(F)cc5)c4O)cc3F)c2nc1OCCCN1CCOCC1` [Compound 424, N-[3-fluoro-4-[[7-methoxy-6-(3-morpholin-4-ylpropoxy)-1,5-naphthyridin-4-yl]oxy]phenyl]-5-(4-fluorophenyl)-4-hydroxy-6-methylpyridine-3-carboxamide], the half-maximal inhibitory concentration (IC50) in experiment [1] and in experiment [2] was < 100 nM in each case.
With `COc1cc2nccc(Oc3ccc(NC(=O)c4cnc(C)c(-c5ccc(F)cc5C)c4O)cc3F)c2nc1OCCCN1CCOCC1` [Compound 425, N-[3-fluoro-4-[[7-methoxy-6-(3-morpholin-4-ylpropoxy)-1,5-naphthyridin-4-yl]oxy]phenyl]-5-(4-fluoro-2-methylphenyl)-4-hydroxy-6-methylpyridine-3-carboxamide], the IC50 in experiment [1] and in experiment [2] was < 100 nM in each case.
Turning to `Cc1cc2nccc(Oc3ccc(NC(=O)c4cnc(C)c(-c5ccc(F)cc5)c4O)cc3F)c2nc1F` [Compound 426, N-[3-fluoro-4-[(6-fluoro-7-methyl-1,5-naphthyridin-4-yl)oxy]phenyl]-5-(4-fluorophenyl)-4-hydroxy-6-methylpyridine-3-carboxamide], the IC50 in experiment [1] and in experiment [2] was < 100 nM throughout.
For the molecule `Cc1cc(F)ccc1-c1c(C)ncc(C(=O)Nc2ccc(Oc3ccnc4cc(C)c(F)nc34)c(F)c2)c1O` [Compound 427, N-[3-fluoro-4-[(6-fluoro-7-methyl-1,5-naphthyridin-4-yl)oxy]phenyl]-5-(4-fluoro-2-methylphenyl)-4-hydroxy-6-methylpyridine-3-carboxamide], the IC50 in experiment [1] and in experiment [2] was < 100 nM each time.
With `Cc1cc(F)ccc1-c1c(C)nc(C)c(C(=O)Nc2ccc(Oc3ccnc4cc(C)c(F)nc34)c(F)c2)c1O` [Compound 428, N-[3-fluoro-4-[(6-fluoro-7-methyl-1,5-naphthyridin-4-yl)oxy]phenyl]-5-(4-fluoro-2-methylphenyl)-4-hydroxy-2,6-dimethylpyridine-3-carboxamide], the IC50 in experiment [1] and in experiment [2] was < 100 nM in each case.

The IC50 is the concentration needed to halve the response being measured. Read a high IC50 as weaker potency in that assay.
